Laboratory results published in patent US9446039B2, “Aminoheteroaryl compounds as MTH1 inhibitors” (CEMM—FORSCHUNGSZENTRUM FÜR MOLEKULARE MEDIZIN GMBH, priority 2012, dated 2016).

What was measured:
Type in all cases: binding
[1] = target: T1, SW480 colon carcinoma cells lysate proteins (Homo sapiens, UniProt Q7KZF4); conditions: PreyGene SND1
T1 sequence (Q7KZF4 1-910): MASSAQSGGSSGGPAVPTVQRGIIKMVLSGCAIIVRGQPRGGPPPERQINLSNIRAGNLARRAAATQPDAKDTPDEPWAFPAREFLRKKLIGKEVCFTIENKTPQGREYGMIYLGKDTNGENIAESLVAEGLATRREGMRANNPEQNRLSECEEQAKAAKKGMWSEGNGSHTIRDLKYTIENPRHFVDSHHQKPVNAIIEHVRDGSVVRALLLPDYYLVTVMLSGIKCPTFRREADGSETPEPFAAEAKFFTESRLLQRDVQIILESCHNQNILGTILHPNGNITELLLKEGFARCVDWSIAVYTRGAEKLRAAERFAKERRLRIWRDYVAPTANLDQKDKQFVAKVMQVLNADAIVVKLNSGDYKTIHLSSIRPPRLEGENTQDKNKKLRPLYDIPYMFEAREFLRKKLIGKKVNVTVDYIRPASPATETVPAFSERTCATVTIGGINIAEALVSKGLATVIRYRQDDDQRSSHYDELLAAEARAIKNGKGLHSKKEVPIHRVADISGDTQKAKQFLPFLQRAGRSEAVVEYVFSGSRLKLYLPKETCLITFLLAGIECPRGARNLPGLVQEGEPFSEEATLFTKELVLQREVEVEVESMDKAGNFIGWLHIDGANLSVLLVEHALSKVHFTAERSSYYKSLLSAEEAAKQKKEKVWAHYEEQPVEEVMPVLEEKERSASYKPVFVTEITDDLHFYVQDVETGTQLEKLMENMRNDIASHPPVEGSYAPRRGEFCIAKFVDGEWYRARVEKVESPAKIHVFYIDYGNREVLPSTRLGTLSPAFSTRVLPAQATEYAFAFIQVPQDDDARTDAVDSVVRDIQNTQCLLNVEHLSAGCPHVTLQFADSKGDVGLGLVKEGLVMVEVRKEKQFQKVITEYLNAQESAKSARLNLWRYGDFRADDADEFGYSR

[2] = target: SW480 colon carcinoma cells lysate proteins (Homo sapiens, UniProt Q15056); conditions: PreyGene EIF4H
[3] = target: SW480 colon carcinoma cells lysate proteins (Homo sapiens, UniProt P68371); conditions: PreyGene TUBB4B; SW480 cells
Sequence of SW480 colon carcinoma cells lysate proteins (Homo sapiens, UniProt P68371) (P68371 whole entry): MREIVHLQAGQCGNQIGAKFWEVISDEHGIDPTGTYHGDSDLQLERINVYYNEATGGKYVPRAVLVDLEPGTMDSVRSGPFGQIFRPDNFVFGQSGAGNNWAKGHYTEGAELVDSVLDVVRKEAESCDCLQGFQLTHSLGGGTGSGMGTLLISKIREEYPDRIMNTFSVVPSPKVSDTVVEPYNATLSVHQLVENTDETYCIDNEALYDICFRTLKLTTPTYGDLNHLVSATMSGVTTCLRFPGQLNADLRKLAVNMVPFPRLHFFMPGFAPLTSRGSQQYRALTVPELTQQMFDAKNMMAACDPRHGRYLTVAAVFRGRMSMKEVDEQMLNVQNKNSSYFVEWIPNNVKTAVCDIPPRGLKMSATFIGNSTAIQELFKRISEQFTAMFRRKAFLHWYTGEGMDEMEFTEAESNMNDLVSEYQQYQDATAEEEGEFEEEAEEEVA

[4] = target: T2, SW480 colon carcinoma cells lysate proteins (Homo sapiens, UniProt Q14847); conditions: PreyGene LASP1; SW480 cells
T2 sequence (Q14847 1-261): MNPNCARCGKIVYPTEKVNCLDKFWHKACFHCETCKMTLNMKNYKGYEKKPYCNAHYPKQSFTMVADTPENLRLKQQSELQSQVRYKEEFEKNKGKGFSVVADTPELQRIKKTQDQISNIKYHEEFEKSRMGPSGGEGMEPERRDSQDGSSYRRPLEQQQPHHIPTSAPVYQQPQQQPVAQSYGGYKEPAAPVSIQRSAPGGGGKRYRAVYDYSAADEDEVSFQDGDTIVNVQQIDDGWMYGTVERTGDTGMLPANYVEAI

[5] = target: SW480 colon carcinoma cells lysate proteins (Homo sapiens, UniProt Q13200); conditions: PreyGene PSMD2
Sequence of SW480 colon carcinoma cells lysate proteins (Homo sapiens, UniProt Q13200) (Q13200 whole entry): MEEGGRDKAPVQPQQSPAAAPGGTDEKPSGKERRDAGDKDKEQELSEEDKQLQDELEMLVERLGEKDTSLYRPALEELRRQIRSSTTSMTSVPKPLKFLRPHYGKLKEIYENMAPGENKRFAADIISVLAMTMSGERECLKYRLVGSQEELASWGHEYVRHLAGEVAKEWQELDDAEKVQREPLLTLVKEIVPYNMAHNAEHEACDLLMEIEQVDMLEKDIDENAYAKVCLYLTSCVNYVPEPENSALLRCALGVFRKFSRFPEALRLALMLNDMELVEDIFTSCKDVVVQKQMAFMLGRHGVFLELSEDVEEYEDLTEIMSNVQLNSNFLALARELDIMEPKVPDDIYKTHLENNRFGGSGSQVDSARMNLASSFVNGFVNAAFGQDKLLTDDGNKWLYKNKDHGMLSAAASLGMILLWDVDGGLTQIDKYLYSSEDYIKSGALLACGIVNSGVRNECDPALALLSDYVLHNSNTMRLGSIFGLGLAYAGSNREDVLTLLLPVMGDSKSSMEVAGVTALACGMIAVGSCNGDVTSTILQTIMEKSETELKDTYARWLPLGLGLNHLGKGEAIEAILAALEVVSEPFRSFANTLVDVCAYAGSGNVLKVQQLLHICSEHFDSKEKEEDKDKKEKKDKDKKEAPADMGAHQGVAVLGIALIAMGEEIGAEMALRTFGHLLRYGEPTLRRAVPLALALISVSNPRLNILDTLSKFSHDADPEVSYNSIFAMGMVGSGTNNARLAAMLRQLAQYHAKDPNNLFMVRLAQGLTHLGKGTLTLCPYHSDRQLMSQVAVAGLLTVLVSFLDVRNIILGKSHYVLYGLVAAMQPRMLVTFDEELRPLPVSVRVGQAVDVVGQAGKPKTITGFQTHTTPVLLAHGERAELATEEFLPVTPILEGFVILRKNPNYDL

[6] = target: T3, SW480 colon carcinoma cells lysate proteins (Homo sapiens, UniProt P50454); conditions: PreyGene SERPINH1
T3 sequence (P50454 19-418): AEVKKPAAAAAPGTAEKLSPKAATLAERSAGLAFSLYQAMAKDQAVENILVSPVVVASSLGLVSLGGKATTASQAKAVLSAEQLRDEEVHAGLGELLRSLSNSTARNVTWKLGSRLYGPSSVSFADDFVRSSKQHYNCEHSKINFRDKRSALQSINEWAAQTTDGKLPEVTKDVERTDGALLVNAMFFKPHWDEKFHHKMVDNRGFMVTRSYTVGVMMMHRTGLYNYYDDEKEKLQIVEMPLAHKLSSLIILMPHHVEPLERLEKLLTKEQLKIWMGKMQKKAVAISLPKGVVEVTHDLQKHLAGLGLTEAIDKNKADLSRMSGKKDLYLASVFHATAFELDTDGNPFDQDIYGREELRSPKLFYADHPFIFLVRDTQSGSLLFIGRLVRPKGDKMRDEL

[7] = target: SW480 colon carcinoma cells lysate proteins (Homo sapiens, UniProt P62942); conditions: PreyGene FKBP1A; SW480 cells
Sequence of SW480 colon carcinoma cells lysate proteins (Homo sapiens, UniProt P62942) (P62942 whole entry): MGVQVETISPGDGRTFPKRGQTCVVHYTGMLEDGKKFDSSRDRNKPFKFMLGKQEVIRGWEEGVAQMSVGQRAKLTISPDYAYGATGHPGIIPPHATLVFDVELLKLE

In the case of `C[C@H](Oc1cc(-c2cnn(C3CCNCC3)c2)cnc1N)c1c(Cl)ccc(F)c1Cl` [(5)-crizotinib], the AvgP [1] is reported as 0.3957, the “SC.Exp. 1-1” value [1] is reported as 3 and the “SC.Exp. 1-2” value [1] is reported as 5. For the same molecule, the “SC.Exp. 2-1” value [1] was 0, the “SC.Exp. 2-2” value [1] was 0 and the “Sum (SC.Exp.)” value [1] was 8. For the same molecule, the AvgP [2] was 0.4095, the “SC.Exp. 1-1” value [2] was 3 and the “SC.Exp. 1-2” value [2] was 2. For the same molecule, the “SC.Exp. 2-1” value [2] was 0, the “SC.Exp. 2-2” value [2] was 0 and the “Sum (SC.Exp.)” value [2] was 5. For the same molecule, the AvgP [3] was 0, the “SC.Exp. 1-1” value [3] was 8 and the “SC.Exp. 1-2” value [3] was 8. The “SC.Exp. 2-1” value [3] was 2, the “SC.Exp. 2-2” value [3] was 4 and the “SC.Exp. Sum” value [3] was 22. For the same molecule, the AvgP [4] was 0, the “SC.Exp. 1-1” value [4] was 0 and the “SC.Exp. 1-2” value [4] was 1. For the same molecule, the “SC.Exp. 2-1” value [4] was 0, the “SC.Exp. 2-2” value [4] was 0 and the “SC.Exp. Sum” value [4] was 1. For the same molecule, the AvgP [5] was 0.4359, the “SC.Exp. 1-1” value [5] was 6 and the “SC.Exp. 1-2” value [5] was 5. The “SC.Exp. 2-1” value [5] was 0, the “SC.Exp. 2-2” value [5] was 0 and the “Sum (SC.Exp.)” value [5] was 11. For the same molecule, the AvgP [6] was 0.3843, the “SC.Exp. 1-1” value [6] was 5 and the “SC.Exp. 1-2” value [6] was 6. For the same molecule, the “SC.Exp. 2-1” value [6] was 0, the “SC.Exp. 2-2” value [6] was 0 and the “Sum (SC.Exp.)” value [6] was 11. For the same molecule, the AvgP [7] was 0, the “SC.Exp. 1-1” value [7] was 1 and the “SC.Exp. 1-2” value [7] was 1. For the same molecule, the “SC.Exp. 2-1” value [7] was 1, the “SC.Exp. 2-2” value [7] was 0 and the “SC.Exp. Sum” value [7] was 3.
